Source: US12590953B2, “Methods for screening cereblon modifying compounds” (CELGENE CORPORATION, priority 2018, dated 2026)
“Also recorded” adds a separate entry of the source.

How the values were obtained:
[1] = test system: rabbit SALL4 zinc finger / rabbit cereblon; assay: In vitro ubiquitination of rabbit SALL4 zinc finger by rabbit cereblon; format: biochemical; details: rabbit zinc finger amino acids 357-385; with thalidomide
Description: Full length human cereblon, full length mouse cereblon, and full length rabbit cereblon were co-expressed with full length human DDB1 in SF9 insect cells in ESF921 medium in the presence of 50 uM zinc acetate. Cells were resuspended in buffer containing 50 mM Tris-HCl pH 7.5, 500 mM NaCl, 10 mM imidazole, 10% glycerol, 2 mM TCEP, 1× Protease Inhibitor Cocktail (San Diego Bioscience), and 40,000 U Benzonase (Novagen), and sonicated for 30 s. Lysate was clarified by high speed spin at 30,000 rpm for 30 minutes, and clarified lysate was incubated with Ni-NTA affinity resin (Qiagen) for 1 hour. Complex was eluted with buffer containing 500 mM imidazole, and the ZZ-domain-6×His tag removed by thrombin cleavage (Enzyme Research) overnight, combined with dialysis in 10 mM imidazole buffer. Cleaved eluate was incubated with Ni-NTA affinity resin (Qiagen), and the flow-through diluted to 200 mM NaCl for further purification over a Sephacryl S-400 16/60 column (GE Healthcare) in buffer containing 10 mM HEPES pH 7.0, 240 mM NaCl, and 3 mM TECP.
Purified E1, E2, ubiquitin, Cul4A-Rbx1, cereblon-DDB1, and GSPT1 proteins were used to reconstitute the ubiquitination of MBP-fused WT and mutant proteins in vitro. Substrate proteins purified by maltose affinity resin (NEB) were incubated at an approximate concentration of 30 uM. […]

[2] = target: T1, SALL4 (Homo sapiens, UniProt Q96SW2); assay: SALL4 immunohistochemistry in huCRBN mouse testis; format: in vivo; details: huCRBN mice, up to 1000 mg/kg for 7 days
T1 construct: from tissue; host or cells: testis of homozygous huCRBN knock-in mice
Description: The SALL4 and ZFP91 protein levels were examined by immunohistochemistry in rabbit, wild-type mouse, and humanized cereblon mouse testes. […] HuCRBN Mice were treated for 7 days and testis were collected and examined by immunohistochemistry (n=3 animals per treatment group per species).
Rabbit embryos were stained for SALL4, and mouse testis were stained for SALL4 and ZFP91. Immunohistochemistry (IHC) was performed on the Bond-III automated slide stainer (Leica Microsystems, Buffalo Grove, Ill.) using the Bond Polymer Refine Detection system (Leica Microsystems, DS9800). Formalin fixed paraffin embedded (FFPE) tissues were sectioned at four micron thick and deparaffinized on the Bond-Max instrument. Antigen retrieval was performed with Epitope Retrieval 2 (ER2, pH 9.0) for 20 min at 100° C. The slides were blocked for endogenous peroxidase activity with Peroxide Block for 5 minutes at room temperature. Sections were then incubated with the mouse monoclonal anti-SALL4 EE-30 antibody (Santa Cruz, sc-101147) at a 1:100 dilution for 60 min at room temperature, or with the rabbit monoclonal anti-ZFP91 antibody (Celgene custom clone 122-8-6) at 0.25 ug/ml. For mouse testis, primary antibodies were incubated for 15 min at room temperature, and Post-Primary and horseradish peroxidase (HRP) labeled Polymer were incubated at the instrument's default conditions. […]

T1 sequence (Q96SW2 whole entry): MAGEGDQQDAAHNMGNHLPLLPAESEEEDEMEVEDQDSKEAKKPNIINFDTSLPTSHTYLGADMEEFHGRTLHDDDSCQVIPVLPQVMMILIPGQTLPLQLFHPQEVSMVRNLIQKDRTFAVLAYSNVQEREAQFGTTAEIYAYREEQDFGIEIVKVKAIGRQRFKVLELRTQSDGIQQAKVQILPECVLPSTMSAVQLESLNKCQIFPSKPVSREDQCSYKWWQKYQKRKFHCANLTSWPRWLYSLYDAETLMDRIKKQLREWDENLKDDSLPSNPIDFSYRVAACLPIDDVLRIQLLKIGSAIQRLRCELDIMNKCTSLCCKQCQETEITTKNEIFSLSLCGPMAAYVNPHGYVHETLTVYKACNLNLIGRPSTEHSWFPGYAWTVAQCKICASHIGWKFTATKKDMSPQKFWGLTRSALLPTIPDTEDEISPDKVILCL
T1 sequence (Q3U1J4 whole entry partner): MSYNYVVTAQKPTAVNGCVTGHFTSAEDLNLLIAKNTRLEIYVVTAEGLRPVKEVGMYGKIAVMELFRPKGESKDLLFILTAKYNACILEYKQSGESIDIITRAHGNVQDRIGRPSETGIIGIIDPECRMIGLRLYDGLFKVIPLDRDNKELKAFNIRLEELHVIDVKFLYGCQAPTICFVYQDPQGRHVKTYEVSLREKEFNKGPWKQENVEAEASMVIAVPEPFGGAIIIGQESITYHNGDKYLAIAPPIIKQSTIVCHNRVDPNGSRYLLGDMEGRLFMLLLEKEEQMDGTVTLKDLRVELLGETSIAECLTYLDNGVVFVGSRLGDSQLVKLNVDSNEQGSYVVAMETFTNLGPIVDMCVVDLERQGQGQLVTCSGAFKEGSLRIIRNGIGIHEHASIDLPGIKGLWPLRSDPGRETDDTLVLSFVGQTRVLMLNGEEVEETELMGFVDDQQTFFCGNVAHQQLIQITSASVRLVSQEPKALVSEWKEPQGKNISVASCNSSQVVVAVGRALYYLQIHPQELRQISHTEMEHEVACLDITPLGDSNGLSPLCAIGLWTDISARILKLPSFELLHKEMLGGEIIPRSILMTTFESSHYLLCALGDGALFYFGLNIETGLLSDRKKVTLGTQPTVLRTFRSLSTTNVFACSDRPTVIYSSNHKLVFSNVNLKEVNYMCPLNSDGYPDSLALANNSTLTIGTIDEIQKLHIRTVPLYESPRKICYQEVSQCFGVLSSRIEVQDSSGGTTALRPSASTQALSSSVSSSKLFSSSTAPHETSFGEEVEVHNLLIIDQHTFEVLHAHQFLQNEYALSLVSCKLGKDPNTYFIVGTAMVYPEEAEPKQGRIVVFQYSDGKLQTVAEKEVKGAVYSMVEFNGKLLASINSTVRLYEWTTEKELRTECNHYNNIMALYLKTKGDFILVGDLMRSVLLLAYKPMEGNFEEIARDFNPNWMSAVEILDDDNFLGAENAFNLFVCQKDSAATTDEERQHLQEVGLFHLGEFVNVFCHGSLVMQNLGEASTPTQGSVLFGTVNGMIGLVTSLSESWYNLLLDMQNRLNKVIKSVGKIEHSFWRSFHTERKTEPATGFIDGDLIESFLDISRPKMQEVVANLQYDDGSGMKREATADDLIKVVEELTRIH

For `O=C1CCC(N2C(=O)c3ccccc3C2=O)C(=O)N1` (centres unmarked) [thalidomide], the “Ubiquitination of rabbit SALL4 zinc finger (orthologous to human ZF2) by rabbit cereblon” value [1] was “could be ubiquitinated by rabbit cereblon in a thalidomide-dependent manner” and the “SALL4 protein levels in testis” value [2] was “remain unchanged; also recorded: caused degradation of ZFP91 but not SALL4”.
